From PubChem BioAssay AID1259408 (Genetic Toxicology Data Bank (GENE-TOX), 2018) come the findings set out here.

Structures are written as SMILES. Active and inactive are the calls of the source. How the calls were made is not given here.

For the series, the system named is GENE-TOX genotoxicity assays, various organisms and cells. The experiment in a line: GENE-TOX mutagenicity studies. The conditions noted are these: for call: Assay Type: In vivo carcinogenicity studies.
[1] abbreviates: Species/Cell Type: Nonhuman, Assay Code: CCG-, Evaluation Type: Evaluation A (Pre-1980).
Setting [2] is: Species/Cell Type: Syrian hamster embryo (SA7/SHE) cells, Assay Type: Cell transformation, viral enhanced, Assay Code: CT7+, Evaluation Type: Evaluation A (Pre-1980).
[3] abbreviates: Species/Cell Type: Salmonella typhimurium (one or more of the five standard strains: TA98, TA100, TA1535, TA1537, and TA1538), Assay Type: Histidine reverse gene mutation, Ames assay, Assay Code: SAL+, Evaluation Type: Evaluation A (Pre-1980).
Where [4] appears, read: Species/Cell Type: Nonhuman, Assay Code: CCG+L, Evaluation Type: Evaluation A (Pre-1980).
[5] abbreviates: Species/Cell Type: Saccharomyces cerevisiae, Assay Type: Mitotic recombination or gene conversion, Assay Code: YEH+/-*, Activation: With metabolic activation, Evaluation Type: Evaluation A (Pre-1980).
The mark [6] stands for this setting: Species/Cell Type: Salmonella typhimurium (one or more of the five standard strains: TA98, TA100, TA1535, TA1537, and TA1538), Assay Type: Histidine reverse gene mutation, Ames assay, Assay Code: SAL+*, Activation: With metabolic activation, Evaluation Type: Evaluation A (Pre-1980).
Setting [7] is: Species/Cell Type: Drosophila melanogaster, Assay Type: Sex-linked recessive lethal gene mutation, Assay Code: SRLT, Evaluation Type: Evaluation A (Pre-1980).
Setting [8] is: Species/Cell Type: Drosophila melanogaster, Assay Type: Sex-linked recessive lethal gene mutation, Assay Code: SRL+, Evaluation Type: Evaluation A (Pre-1980).
[9] abbreviates: Species/Cell Type: Neurospora crassa, Assay Type: Aneuploidy, chromosome aberrations, Assay Code: NEN-, Evaluation Type: Evaluation A (Pre-1980).
The mark [10] stands for this setting: Species/Cell Type: Mammalian polychromatic erythrocytes, Assay Type: Micronucleus test, chromosome aberrations, Assay Code: MNT+, Evaluation Type: Evaluation B (Post-1980).
[11] abbreviates: Species/Cell Type: Fischer rat embryo (RLV/1706) cells, Assay Type: Cell transformation, viral enhanced, Assay Code: CTR+, Evaluation Type: Evaluation A (Pre-1980).
Setting [12] is: Species/Cell Type: Neurospora crassa, Assay Type: Forward gene mutation, Assay Code: NEF+, Evaluation Type: Evaluation A (Pre-1980).
Where [13] appears, read: Species/Cell Type: Mouse, Sex: Male, Assay Type: Sperm morphology, Assay Code: SPI-, Evaluation Type: Evaluation A (Pre-1980).

With `O=C(O)C1=NN(c2ccc(S(=O)(=O)O)cc2)C(=O)C1N=Nc1ccc(S(=O)(=O)O)cc1` (centres undefined), the mutagenic call is “no conclusion” (Species/Cell Type: Bacillus subtilis (H17 vs M45T), Assay Type: Rec-assay, spot test, DNA effects (bacterial DNA repair), Assay Code: REXT, Evaluation Type: Evaluation A (Pre-1980)); “inactive; negative” (Species/Cell Type: Fischer rat embryo (RLV/1706) cells, Assay Type: Cell transformation, viral enhanced, Assay Code: CTR-, Evaluation Type: Evaluation A (Pre-1980)); “no conclusion” (Species/Cell Type: Mammalian polychromatic erythrocytes, Assay Type: Micronucleus test, chromosome aberrations, Assay Code: MNTT, Evaluation Type: Evaluation B (Post-1980)); “inactive; negative” (Species/Cell Type: Saccharomyces cerevisiae, Assay Type: Mitotic recombination or gene conversion, Assay Code: YEC-, Evaluation Type: Evaluation A (Pre-1980)); “inactive; negative” (Species/Cell Type: Salmonella typhimurium (one or more of the five standard strains: TA98, TA100, TA1535, TA1537, and TA1538), Assay Type: Histidine reverse gene mutation, Ames assay, Assay Code: SAL-, Evaluation Type: Evaluation A (Pre-1980)).

With `COC(=O)c1ccc(C(=O)OC)cc1`, the call under setting [1] is “inactive; negative”. Moreover, the mutagenic call (Species/Cell Type: Syrian hamster embryo (SA7/SHE) cells, Assay Type: Cell transformation, viral enhanced, Assay Code: CT7-, Evaluation Type: Evaluation A (Pre-1980)) is “inactive; negative”.

Regarding `c1ccc2c(c1)Nc1ccccc1S2`, the mutagenic call under setting [2] was “active; positive”.

Take `COc1ccc(N)c2c1C(=O)c1ccccc1C2=O`: the mutagenic call under setting [3] was “active; positive”.

For the compound `CC(=O)ON(C(C)=O)c1ccc(-c2ccccc2)cc1`, the mutagenic call (Species/Cell Type: Human diploid fibroblasts, Assay Type: Unscheduled DNA synthesis (UDS) in vitro, DNA effects, Assay Code: UDH+, Evaluation Type: Evaluation A (Pre-1980)) was “active; positive” and the mutagenic call (Species/Cell Type: Nonhuman, Assay Type: Sister-chromatid exchange (SCE) in vitro, Assay Code: SC2+, Evaluation Type: Evaluation B (Post-1980)) was “active; positive”.

Consider `CCCCN(CCO)N=O`, for which the mutagenic call under setting [3] is “active; positive”.

Turning to `O[C@@H]1C=Cc2c(cc3ccc4cccc5ccc2c3c45)[C@H]1O`, the mutagenic call (Species/Cell Type: Chinese hamster lung (V79) cells, Assay Type: Forward gene mutation at the HPRT or ouabain locus, Assay Code: V79+, Evaluation Type: Evaluation A (Pre-1980)) is “active; positive”. For the same compound, the call under setting [4] was “active; positive”.

Regarding `NCCC[C@H](N)C(=O)O`, the mutagenic call (Species/Cell Type: Human, Sex: Male, Assay Type: Sperm morphology, Assay Code: SPH-, Evaluation Type: Evaluation A (Pre-1980)) is “inactive; negative”.

With `COc1cc(N=Nc2ccccc2)ccc1N`, the mutagenic call (Species/Cell Type: Escherichia coli polA (W3110 vs P3478), Assay Type: Rec-assay, DNA effects (bacterial DNA repair), Assay Code: RE2+, Evaluation Type: Evaluation A (Pre-1980)) was “active; positive”; the mutagenic call (Species/Cell Type: Escherichia coli polA (W3119 vs P3478), Assay Type: Rec-assay, DNA effects (bacterial DNA repair), Assay Code: RE1T, Evaluation Type: Evaluation A (Pre-1980)) was “no conclusion”; the mutagenic call under setting [5] was “inactive; positive without activation, negative with activation”; the mutagenic call under setting [6] was “active; positive”; the mutagenic call (Species/Cell Type: Salmonella typhimurium, Assay Type: Forward and reverse gene mutation, host-mediated assay, Assay Code: HMA+, Evaluation Type: Evaluation A (Pre-1980)) was “active; positive”; the mutagenic call (Species/Cell Type: Syrian hamster embryo (SHE) cells, Assay Type: Cell transformation, clonal assay, Assay Code: CTC+, Evaluation Type: Evaluation A (Pre-1980)) was “active; positive”. Moreover, under setting [4], the call is “active; positive”.

As to `ClC(Cl)(Cl)C1CO1` (centres undefined), the mutagenic call was “no conclusion” under setting [7]; “active; positive” (Species/Cell Type: Human lymphocytes, Assay Type: Sister-chromatid exchange (SCE) in vitro, Assay Code: SCL+, Evaluation Type: Evaluation B (Post-1980)); “active; positive” (Species/Cell Type: Human, Assay Type: Sister-chromatid exchange (SCE) in vitro, Assay Code: SC1+, Evaluation Type: Evaluation B (Post-1980)); “inactive; positive without activation, negative with activation” under setting [5].

As to `O=[N+]([O-])c1ccc(N=Nc2c(O)ccc3ccccc23)c([N+](=O)[O-])c1`, the mutagenic call under setting [3] is “active; positive”.

For `Cc1cc2c(c3ccc4ccccc4c13)CC(O)C2=O` (centres undefined), under setting [6], the mutagenic call was “active; positive”.

Take `Cc1cccc2ncccc12`: the mutagenic call under setting [6] was “active; positive”.

With `O=C1C=C(N2CC2)c2ccccc2C1=O`, the mutagenic call under setting [8] was “active; positive”.

With `O=C1NC(=O)C(=O)C(=O)N1`, under setting [9], the mutagenic call was “inactive; negative”.

Turning to `COc1c(OC)c(O)c2c(=O)c(OC)c(-c3ccc(O)c(O)c3)oc2c1OC`, under setting [10], the mutagenic call is “active; positive”.

Take `c1ccc2c(c1)ccc1cc3c(ccc4ccccc43)cc12`: the mutagenic call is, setting by setting: (Species/Cell Type: Chinese hamster lung (V79) cells, Assay Type: Forward gene mutation at the HPRT or ouabain locus, Assay Code: V79+*, Activation: With metabolic activation, Evaluation Type: Evaluation A (Pre-1980)) “active; positive”; under setting [8], “active; positive”; under setting [11], “active; positive”; (Species/Cell Type: Fischer rat embryo (SA7/RE) cells, Assay Type: Cell transformation, viral enhanced, Assay Code: CTA+, Evaluation Type: Evaluation A (Pre-1980)) “active; positive”; (Species/Cell Type: Human diploid fibroblasts, Assay Type: Unscheduled DNA synthesis (UDS) in vitro, DNA effects, Assay Code: UDHT, Evaluation Type: Evaluation A (Pre-1980)) “no conclusion”; (Species/Cell Type: Mouse (BALB/c-3T3) cells, Assay Type: Cell transformation, Assay Code: CTB+, Evaluation Type: Evaluation A (Pre-1980)) “active; positive”. In addition, the mutagenic call reads like this: (Species/Cell Type: Mouse (C3H/10T1/2) cells, Assay Type: Cell transformation, Assay Code: CTH+, Evaluation Type: Evaluation A (Pre-1980)) “active; positive”; (Species/Cell Type: Mouse embryo (AKR/ME) cells, Assay Type: Cell transformation, Assay Code: CTK+, Evaluation Type: Evaluation A (Pre-1980)) “active; positive”; (Species/Cell Type: Mouse prostate cells, Assay Type: Cell transformation, Assay Code: CTMT, Evaluation Type: Evaluation A (Pre-1980)) “no conclusion”; under setting [12], “active; positive”; (Species/Cell Type: Nonhuman, Assay Type: Sister-chromatid exchange (SCE) in vivo, Assay Code: SC3T, Evaluation Type: Evaluation A (Pre-1980)) “no conclusion”; under setting [6], “active; positive”. Besides, the mutagenic call runs as follows: under setting [2], “active; positive”; (Species/Cell Type: Syrian hamster embryo (SHE) cells, Assay Type: Cell transformation, clonal assay, Assay Code: CTC+D, Dose Response: With dose response, Evaluation Type: Evaluation A (Pre-1980)) “active; positive”; (Species/Cell Type: Syrian hamster embryo (SHE) cells, Assay Type: Cell transformation, focus assay, Assay Code: CTF+, Evaluation Type: Evaluation A (Pre-1980)) “active; positive”. Moreover, the call (Species/Cell Type: Nonhuman, Assay Code: CCG+, Evaluation Type: Evaluation A (Pre-1980)) is “active; positive”.

On to `Nc1ccc(N)cc1`, for which the mutagenic call was “active; positive” (Species/Cell Type: Allium cepa, Assay Type: Chromosome aberrations, Assay Code: ALC+, Evaluation Type: Evaluation A (Pre-1980)); “active; positive” under setting [8]; “active; positive” under setting [11]; “no conclusion” (Species/Cell Type: Mammalian polychromatic erythrocytes, Assay Type: Micronucleus test, chromosome aberrations, Assay Code: MNTT, Evaluation Type: Evaluation A (Pre-1980)); “inactive; negative” under setting [13]; “inactive; negative” under setting [9]. Also, the mutagenic call was “inactive; negative” (Species/Cell Type: Rodents, Sex: Male, Assay Type: Dominant lethal test, Assay Code: DLT-, Evaluation Type: Evaluation A (Pre-1980)) and “active; positive” under setting [2]. For the same compound, the call under setting [1] is “inactive; negative”.

As to `CCN(CC)CCn1nc2c3c(c(CO)ccc31)Sc1ccccc1-2`, the mutagenic call runs as follows: under setting [7], “no conclusion”; (Species/Cell Type: Mouse lymphoma (L5178Y) cells, Assay Type: Forward gene mutation at the thymidine kinase (TK) locus, chromosome aberrations, Assay Code: L51+, Evaluation Type: Evaluation A (Pre-1980)) “active; positive”; under setting [12], “active; positive”.

Turning to `C[C@H](N)C(=O)c1ccccc1`, the mutagenic call under setting [10] is “active; positive”.

Turning to `Nc1ccc(S)cc1`, under setting [13], the mutagenic call is “inactive; negative”.

In the case of `CC[C@@H](CO)NC(=O)[C@@H]1C=C2c3cccc4c3c(cn4C)C[C@H]2N(C)C1`, the mutagenic call (Species/Cell Type: Rodents, Sex: Male, Assay Type: Dominant lethal test, Assay Code: DLT+, Evaluation Type: Evaluation A (Pre-1980)) is “active; positive”.

Turning to `Nc1nc(-c2ccc([N+](=O)[O-])[nH]2)cs1`, the mutagenic call (Species/Cell Type: Salmonella typhimurium (one or more of the five standard strains: TA98, TA100, TA1535, TA1537, and TA1538), Assay Type: Histidine reverse gene mutation, Ames assay, Assay Code: SALT, Evaluation Type: Evaluation A (Pre-1980)) is “no conclusion”.
